Measured values as given in patent US6596257B2, “Detection and visualization of neoplastic tissues and other tissues” (Prolume, Ltd., priority 1996, dated 2003).

Experiments:
[1] = type: physicochemical
Excerpt: Coelenterazine is not terribly soluble in non-irritant vehicles. Coelenterazine is soluble to at least to a concentration of 200 micrograms/mL in a solution of 2% (w/v) PEG 400 containing about 0.8% (w/v) NaCl. Although this solution is slightly hypertonic, it is not an irritant for vehicle purposes.

mice = test: Repeated administration toxicology: gross signs of toxicity in behavior; type: in vivo, mouse; conditions: 1 mg/kg i.p., daily administration for three days, n=6
Excerpt: […] Mice are examined over the course of the study for any gross signs of toxicity as evidenced in their behavior. At the end of the one-week period, blood which is collected by cardiac puncture immediately prior to sacrifice. Animals are sacrificed and ten different tissue samples are removed post mortem from each animal. Isolated tissues are fixed, stained, blocked and sectioned. The pathology of the tissue samples will be analyzed and the toxicology data are compiled.

## coelenterazine
[1]
  solubility (soluble to at least a concentration of): ≥ 200 micrograms/mL
mice
  gross behavior changes: no gross behavior changes
